Columns and labels:
P70S6K (T412E mutant) = P70S6K (T412E mutant) (Homo sapiens (Human), UniProt P23443, T412E); assay: P70S6K enzyme assay; type: biochemical; details: read-out: IC50 p70S6K
Outline: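 Read-out is the substrate/phosphopeptide ratio from mobility-shift electrophoresis on a LabChip 3000.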

His-AKT (Full Length) = His-AKT (Full Length) (Homo sapiens (Human), UniProt P31749); assay: AKT enzyme assay; type: biochemical; details: read-out: IC50 AKT
Chain of His-AKT (Full Length) (P31749 whole entry): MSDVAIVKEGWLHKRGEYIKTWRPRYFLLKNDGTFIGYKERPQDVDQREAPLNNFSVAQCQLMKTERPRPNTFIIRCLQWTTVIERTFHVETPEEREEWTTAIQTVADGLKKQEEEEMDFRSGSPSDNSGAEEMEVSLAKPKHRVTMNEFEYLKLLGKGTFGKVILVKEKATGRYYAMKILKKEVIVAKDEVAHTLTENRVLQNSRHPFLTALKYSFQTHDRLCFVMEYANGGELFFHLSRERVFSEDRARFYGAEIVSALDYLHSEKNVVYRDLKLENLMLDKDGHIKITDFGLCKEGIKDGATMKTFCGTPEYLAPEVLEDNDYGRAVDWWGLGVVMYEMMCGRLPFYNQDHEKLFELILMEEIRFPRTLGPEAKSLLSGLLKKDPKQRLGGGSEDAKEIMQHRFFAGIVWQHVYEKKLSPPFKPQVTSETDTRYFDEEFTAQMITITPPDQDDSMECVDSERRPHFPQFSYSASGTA

Chain of P70S6K (T412E mutant) (P23443 whole entry T412E): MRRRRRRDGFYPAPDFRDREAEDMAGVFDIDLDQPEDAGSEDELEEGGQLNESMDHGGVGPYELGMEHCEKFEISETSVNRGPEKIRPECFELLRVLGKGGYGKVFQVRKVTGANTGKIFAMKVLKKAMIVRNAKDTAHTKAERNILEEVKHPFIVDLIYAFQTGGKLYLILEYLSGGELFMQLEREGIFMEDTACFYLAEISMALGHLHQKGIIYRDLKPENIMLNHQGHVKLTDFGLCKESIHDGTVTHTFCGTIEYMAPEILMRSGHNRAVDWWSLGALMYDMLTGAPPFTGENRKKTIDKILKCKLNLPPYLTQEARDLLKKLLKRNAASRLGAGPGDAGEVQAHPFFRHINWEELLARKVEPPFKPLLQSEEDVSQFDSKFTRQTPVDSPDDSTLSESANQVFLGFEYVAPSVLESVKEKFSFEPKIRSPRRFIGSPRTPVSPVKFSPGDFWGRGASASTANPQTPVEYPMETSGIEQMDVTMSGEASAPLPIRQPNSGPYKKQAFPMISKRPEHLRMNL

SMILES | IC50 (P70S6K (T412E mutant)) | IC50 (His-AKT (Full Length))
CCc1c(N)ncnc1N1CCC(c2nc(-c3cncc(Cl)c3)cn2CCN2CCC2)CC1 [Compound 101, 6-(4-(1-(2-(azetidin-1-yl)ethyl)-4-(5-chloropyridin-3-yl)-1H-imidazol-2-yl)piperidin-1-yl)-5-ethylpyrimidin-4-amine] | 7.6 nM | 31 nM
CCOc1c(N)ncnc1N1CCC(c2nc(-c3ccc(F)c(C(F)(F)F)c3)cn2CCN2CCC2)CC1 [Compound 102, 6-(4-(1-(2-(azetidin-1-yl)ethyl)-4-(4-fluoro-3-(trifluoromethyl)phenyl)-1H-imidazol-2-yl)piperidin-1-yl)-5-ethoxypyrimidin-4-amine] | 2.4 nM | 4.1 nM
Nc1ncnc(N2CCC(c3nc(-c4ccc(F)c(C(F)(F)F)c4)cn3CCN3CCC3)CC2)c1OCC(F)(F)F [Compound 103, 6-(4-(1-(2-(azetidin-1-yl)ethyl)-4-(4-fluoro-3-(trifluoromethyl)phenyl)-1H-imidazol-2-yl)piperidin-1-yl)-5-(2,2,2-trifluoroethoxy)pyrimidin-4-amine] | 4.2 nM | 6.6 nM
CCc1c(N)ncnc1N1CCC(c2nc(-c3ccnc(Cl)c3)cn2CCN2CCC2)CC1 [Compound 104, 6-(4-(1-(2-(azetidin-1-yl)ethyl)-4-(2-chloropyridin-4-yl)-1H-imidazol-2-yl)piperidin-1-yl)-5-ethylpyrimidin-4-amine] | 3.1 nM | 16.5 nM
CCc1c(N)ncnc1N1CCC(c2nc(-c3ccnc(C(F)(F)F)c3)cn2CCN2CCC2)CC1 [Compound 105, 6-(4-(1-(2-(azetidin-1-yl)ethyl)-4-(2-(trifluoromethyl)pyridin-4-yl)-1H-imidazol-2-yl)piperidin-1-yl)-5-ethylpyrimidin-4-amine] | 2.7 nM | 13 nM
CCc1c(N)ncnc1N1CCC(c2nc(-c3ccc(F)c(C(N)=O)c3)cn2CCN2CCC2)CC1 [Compound 106, 5-(2-(1-(6-amino-5-ethylpyrimidin-4-yl)piperidin-4-yl)-1-(2-(azetidin-1-yl)ethyl)-1H-imidazol-4-yl)-2-fluorobenzamide] | 21 nM | 49 nM
CCc1c(N)ncnc1N1CCC(c2nc(-c3ccc(OC)c(C(N)=O)c3)cn2CCN2CCC2)CC1 [Compound 107, 5-(2-(1-(6-amino-5-ethylpyrimidin-4-yl)piperidin-4-yl)-1-(2-(azetidin-1-yl)ethyl)-1H-imidazol-4-yl)-2-methoxybenzamide] | 98 nM | 160 nM

Next, values leading:

IC50 (P70S6K (T412E mutant)) | IC50 (His-AKT (Full Length)) | SMILES
2.2 nM | 4.8 nM | CCc1c(N)ncnc1N1CCC(c2nc(-c3ccc(F)c(OC)c3)cn2CCN2CCC2)CC1 [Compound 108, 6-(4-(1-(2-(azetidin-1-yl)ethyl)-4-(4-fluoro-3-methoxyphenyl)-1H-imidazol-2-yl)piperidin-1-yl)-5-ethylpyrimidin-4-amine]
0.9 nM | 1.6 nM | Nc1ncnc(N2CCC(c3nc(-c4ccc(F)c(C(F)(F)F)c4)cn3CCN3CCC3)CC2)c1-c1cnoc1 [Compound 109, 6-(4-(1-(2-(azetidin-1-yl)ethyl)-4-(4-fluoro-3-(trifluoromethyl)phenyl)-1H-imidazol-2-yl)piperidin-1-yl)-5-(isoxazol-4-yl)pyrimidin-4-amine]
0.7 nM | 1.9 nM | Nc1ncnc(N2CCC(c3nc(-c4ccc(F)c(C(F)(F)F)c4)cn3CCN3CCC3)CC2)c1-c1cc[nH]c1 [Compound 110, 6-(4-(1-(2-(azetidin-1-yl)ethyl)-4-(4-fluoro-3-(trifluoromethyl)phenyl)-1H-imidazol-2-yl)piperidin-1-yl)-5-(1H-pyrrol-3-yl)pyrimidin-4-amine]
8.7 nM | 106 nM | CCc1c(N)ncnc1N1CCC(c2nc(-c3ccnc(C)c3)cn2CCN2CCC2)CC1 [Compound 111, 6-(4-(1-(2-(azetidin-1-yl)ethyl)-4-(2-methylpyridin-4-yl)-1H-imidazol-2-yl)piperidin-1-yl)-5-ethylpyrimidin-4-amine]

Source: US9145392B2, “Imidazole amines as modulators of kinase activity” (Merck Patent GmbH, priority 2011, dated 2015)
